Consider 74 molecules from patent US7998987B2, “Inhibitors of c-Met and uses thereof” (Vertex Pharmaceuticals Incorporated, priority 2005, dated 2011).

SMILES strings stand for the structures.

The target in the first experiment is c-Met (Homo sapiens, UniProt P08581). As to the kind of experiment: Ki determination for the inhibition of c-Met kinase activity (standard coupled enzyme system). Type of experiment: biochemical.
Chain of c-Met (P08581 25-1390): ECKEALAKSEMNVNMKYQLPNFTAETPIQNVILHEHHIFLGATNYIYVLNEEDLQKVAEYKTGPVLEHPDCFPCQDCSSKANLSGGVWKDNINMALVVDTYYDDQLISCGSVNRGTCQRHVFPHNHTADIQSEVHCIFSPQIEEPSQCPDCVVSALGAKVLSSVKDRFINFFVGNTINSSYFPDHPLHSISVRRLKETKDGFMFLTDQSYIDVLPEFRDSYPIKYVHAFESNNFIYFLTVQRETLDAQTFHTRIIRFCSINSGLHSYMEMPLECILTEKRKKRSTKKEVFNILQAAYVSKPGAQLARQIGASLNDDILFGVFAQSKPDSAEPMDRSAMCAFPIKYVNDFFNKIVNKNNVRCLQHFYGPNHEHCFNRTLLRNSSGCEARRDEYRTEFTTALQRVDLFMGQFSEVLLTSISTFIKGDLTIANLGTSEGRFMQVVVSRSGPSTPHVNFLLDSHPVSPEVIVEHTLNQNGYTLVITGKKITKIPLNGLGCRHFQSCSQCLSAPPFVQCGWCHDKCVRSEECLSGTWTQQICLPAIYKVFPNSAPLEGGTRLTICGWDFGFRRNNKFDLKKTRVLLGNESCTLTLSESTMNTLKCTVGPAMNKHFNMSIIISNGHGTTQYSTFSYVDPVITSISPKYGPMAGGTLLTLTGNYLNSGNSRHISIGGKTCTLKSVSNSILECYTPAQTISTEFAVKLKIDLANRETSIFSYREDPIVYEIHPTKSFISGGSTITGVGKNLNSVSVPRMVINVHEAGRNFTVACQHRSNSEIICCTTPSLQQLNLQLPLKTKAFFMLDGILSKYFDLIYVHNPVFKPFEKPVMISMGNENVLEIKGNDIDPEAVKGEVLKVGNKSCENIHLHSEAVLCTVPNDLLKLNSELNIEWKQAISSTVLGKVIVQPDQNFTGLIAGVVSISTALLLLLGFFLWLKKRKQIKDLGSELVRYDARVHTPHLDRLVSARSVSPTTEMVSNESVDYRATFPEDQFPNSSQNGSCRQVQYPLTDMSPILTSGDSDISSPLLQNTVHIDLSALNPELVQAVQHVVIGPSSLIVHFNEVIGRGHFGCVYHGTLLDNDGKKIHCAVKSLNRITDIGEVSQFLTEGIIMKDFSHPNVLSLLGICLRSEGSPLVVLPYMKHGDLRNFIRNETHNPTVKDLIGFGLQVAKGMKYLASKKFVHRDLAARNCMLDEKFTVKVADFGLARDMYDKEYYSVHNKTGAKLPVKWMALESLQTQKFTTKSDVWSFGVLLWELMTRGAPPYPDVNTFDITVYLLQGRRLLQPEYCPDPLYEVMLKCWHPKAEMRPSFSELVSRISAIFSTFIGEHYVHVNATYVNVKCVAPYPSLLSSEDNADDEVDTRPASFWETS
Settings: not given
As to the method: Ki Determination for the Inhibition of c-Met
Reactions were carried out in a solution containing 100 mM HEPES (pH 7.5), 10 mM MgCl2, 25 mM NaCl, 300 μM NADH, 1 mM DTT, and 1.5% DMSO. Final substrate concentrations in the assay were 200 μM ATP (Sigma Chemicals, St Louis, Mo.) and 10 μM polyGluTyr (Sigma Chemical Company, St. Louis). Reactions were carried out at 30° C. and 80 nM c-Met. Final concentrations of the components of the coupled enzyme system were 2.5 mM phosphoenolpyruvate, 300 μM NADH, 30 μg/ml pyruvate kinase and 10 μg/ml lactate dehydrogenase.
An assay stock buffer solution was prepared containing all of the reagents listed above with the exception of ATP and a test compound of the present invention. […] The reaction was initiated by the addition of 20 μL of ATP (final concentration 200 μM). Rates of reaction were obtained using a Molecular Devices Spectramax plate reader (Sunnyvale, Calif.) over 10 minutes at 30° C. The Ki values were determined from the rate data as a function of inhibitor concentration.
In turn, `C[C@@H](c1ccc(OP(=O)(O)O)cc1)c1nnc2sc(Nc3cccc(Cl)c3)nn12` [Compound 170] had a Ki of 0.1 to 2 µM.

The same experiment, now with this note: coupled enzyme system, 200 μM ATP, 80 nM c-Met, 30° C.; read-out: c-Met Ki.
Take `CS(=O)(=O)c1ccc(Cc2nnc3ccc(Nc4cccc(Cl)c4)nn23)cc1` [Compound 364]: the Ki was above 2 µM.

For the molecule `C=CCc1ccccc1OCc1nnc2ccc(Nc3cccc(Cl)c3)nn12` [Compound 383], the Ki was above 2 µM.

Regarding `CC(=O)Nc1ccc(OCc2nnc3ccc(Nc4cccc(Cl)c4)nn23)cc1` [Compound 469], the Ki is above 2 µM.

With `COc1cc(Cc2nnc3ccc(Nc4cccc(Cl)c4)nn23)ccc1O` [Compound 442], the Ki was below 0.1 µM.

On to `O=C1NCCCCC1Nc1ccc2nnc(Cc3ccc(O)cc3)n2n1` (centres unmarked) [Compound 307], for which the Ki was above 2 µM.

For the molecule `COc1ccc(Cc2nnc3ccc(Nc4cc(C)cc(C)c4)nn23)cc1` [Compound 297], the Ki was 0.1 to 2 µM.

Consider `CS(=O)(=O)Nc1cccc(Cc2nnc3ccc(Nc4cccc(Cl)c4)nn23)c1` [Compound 403], for which the Ki was 0.1 to 2 µM.

For `Clc1cccc(Nc2ccc3nnc(CNc4ccc5[nH]ccc5c4)n3n2)c1` [Compound 465], the Ki was above 2 µM.

Take `Oc1ccc(Cc2nnc3n2N=C(c2ccccc2)CS3)cc1` [Compound 522]: the Ki is below 0.1 µM.

For `CS(=O)(=O)Nc1cccc(Cc2nnc3n2N=C(c2ccccc2)CS3)c1` [Compound 526], the Ki is above 2 µM.

As to `Clc1cccc(Nc2ccc3nnc(CSc4ccccc4Cl)n3n2)c1` [Compound 389], the Ki is above 2 µM.

With `C[C@H](Nc1ccc2nnc(Cc3ccc(O)cc3)n2n1)c1ccccc1` [Compound 310], the Ki was 0.1 to 2 µM.

On to `Fc1ccc(Cc2nnc3ccc(Nc4cccc(Cl)c4)nn23)c(Cl)c1` [Compound 314], for which the Ki lay in the range of 0.1 to 2 µM.

On to `C[C@@H](Nc1ccc2nnc(Cc3ccc(O)cc3)n2n1)C(C)(C)C` [Compound 309], for which the Ki is 0.1 to 2 µM.

In the case of `C[C@H](CO)Nc1ccc2nnc(Cc3ccc(O)cc3)n2n1` [Compound 303], the Ki lay in the range of 0.1 to 2 µM.

As for `COCCC(=O)N[C@@H]1CCCC[C@@H]1Nc1ccc2nnc([C@@H](C)c3ccc(O)cc3)n2n1` [Compound 445], the inhibition constant (Ki) is above 2 µM.

`O=C(O)c1cn(Cc2nnc3ccc(Nc4cccc(Cl)c4)nn23)c2ccccc12` [Compound 461]: the Ki is above 2 µM.

`Clc1cccc(Nc2ccc3nnc(CNc4ccc5cc[nH]c5c4)n3n2)c1` [Compound 477]: the Ki was above 2 µM.

Turning to `Nc1cccc(Cc2nnc3ccc(Nc4cccc(Cl)c4)nn23)c1` [Compound 317], the Ki was above 2 µM.

For `C[C@@H](c1ccc(O)cc1)c1nnc2ccc(Cl)nn12` [Compound 501], the Ki fell in the range of 0.1 to 2 µM.

For `COc1cccc(Nc2ccc3nnc(Cc4ccc(O)c(F)c4)n3n2)c1` [Compound 293], the Ki was in the range of 0.1 to 2 µM.

With `CC(Cn1cnc2ccccc21)c1nnc2ccc(Nc3cccc(Cl)c3)nn12` (centres unmarked) [Compound 421], the Ki is above 2 µM.

As for `Clc1ccc(Cl)c(Nc2ccc3nnc(Cc4ccc5c(c4)OCO5)n3n2)c1` [Compound 363], the Ki lay within 0.1 to 2 µM.

Consider `CC(C)C(=O)N1CCC(Nc2ccc3nnc(Cc4ccc(O)cc4)n3n2)CC1` [Compound 324], for which the Ki was in the range of 0.1 to 2 µM.

Turning to `CCC(c1ccc(OC)cc1)c1nnc2ccc(Nc3cccc(Cl)c3)nn12` (centres unmarked) [Compound 357], the Ki is below 0.1 µM.

As to `CC(=O)N[C@H]1CCCC[C@H]1Nc1ccc2nnc([C@@H](C)c3ccc(O)cc3)n2n1` [Compound 446], the Ki lay within 0.1 to 2 µM.

As for `COc1ccc(OCc2nnc3ccc(Nc4cccc(Cl)c4)nn23)c(N)c1` [Compound 434], the Ki was 0.1 to 2 µM.

Consider `C[C@@H](c1ccc(O)cc1)c1nnc2ccc(Nc3ccnc(Cl)c3)nn12` [Compound 506], for which the Ki was below 0.1 µM.

Consider `Clc1cccc(Nc2ccc3nnc(CNc4ccc5[nH]ncc5c4)n3n2)c1` [Compound 488], for which the Ki is 0.1 to 2 µM.

Consider `Clc1cccc(Nc2ccc3nnc(CNc4ncccn4)n3n2)c1` [Compound 414], for which the Ki is above 2 µM.

Regarding `c1csc(C2=Nn3c(Cc4ccncc4)nnc3SC2)c1` [Compound 545], the Ki was above 2 µM.

As for `C[C@@H](Nc1ccc2nnc(Cc3ccc(O)cc3)n2n1)c1ccccc1` [Compound 313], the Ki is 0.1 to 2 µM.

`Clc1cccc(Nc2ccc3nnc(Cn4ccc5cncnc54)n3n2)c1` [Compound 463]: the inhibitory constant (Ki) is above 2 µM.

Take `COc1ccc(Cl)cc1Nc1ccc2nnc(Cc3ccc(O)cc3)n2n1` [Compound 360]: the Ki is below 0.1 µM.

Turning to `Clc1cccc(Nc2ccc3nnc(COc4c[nH]c5ccccc45)n3n2)c1` [Compound 491], the Ki is above 2 µM.

Turning to `Nc1cc(C(F)(F)F)ccc1OCc1nnc2ccc(Nc3cccc(Cl)c3)nn12` [Compound 429], the Ki is above 2 µM.

`COc1ccc(Cc2nnc3ccc(Nc4cccc(Cl)c4)nn23)c(Cl)c1` [Compound 440]: the Ki was below 0.1 µM.

As for `CC(C)Oc1ccc(NCc2nnc3ccc(Nc4cccc(Cl)c4)nn23)cc1` [Compound 393], the Ki was above 2 µM.

Turning to `CC(=O)Nc1ccc2nnc(Cc3ccc(O)cc3)n2n1` [Compound 396], the Ki is above 2 µM.

Consider `Clc1cccc(Nc2ccc3nnc(COc4ccc5c(c4)OCO5)n3n2)c1` [Compound 503], for which the Ki was above 2 µM.

The experiment is the same for the next values; noted with them: coupled enzyme system, 200 μM ATP, 10 μM polyGluTyr, 80 nM c-Met, 30° C.; read-out: c-Met Ki.
With `Oc1ccc(Cc2nnc3ccc(NC4CCCCC4)nn23)cc1` [Compound 214], the Ki is below 0.1 µM.

Regarding `COc1cc(Cc2nnc3sc(Nc4ccccc4OC)nn23)ccc1O` [Compound 33], the Ki is above 2 µM.

Regarding `C[C@@H](c1ccc(OC(=O)[C@@H](C)N)cc1)c1nnc2sc(Nc3cccc(F)c3)nn12` [Compound 166], the Ki is below 0.1 µM.

Consider `Oc1ccc(Cc2nnc3ccc(Nc4cccc(Cl)c4)nn23)cc1Cl` [Compound 237], for which the Ki was below 0.1 µM.

Turning to `CSc1cccc(Nc2nn3c(Cn4ccc5c(O)cccc54)nnc3s2)c1` [Compound 169], the Ki is below 0.1 µM.

As to `Oc1ccc(Cc2nnc3ccc(N4CCCCC4)nn23)cc1` [Compound 177], the Ki was in the range of 0.1 to 2 µM.

Regarding `CC(c1ccc(O)cc1)c1nnc2sc(Nc3cccnc3)nn12` (centres unmarked) [Compound 82], the Ki was below 0.1 µM.

As for `COc1ccccc1Nc1nn2c(Cc3ccc(O)cc3)nnc2s1` [Compound 29], the Ki fell in the range of 0.1 to 2 µM.

As to `Oc1cccc(CCc2nnc3sc(Nc4cccc(Cl)c4F)nn23)c1` [Compound 109], the Ki lay within 0.1 to 2 µM.

`COc1ccc(Cc2nnc3ccc(Nc4cccc(F)c4)nn23)cc1` [Compound 285]: the Ki was below 0.1 µM.

For `CC(O)c1cccc(Nc2ccc3nnc(Cc4ccc(O)cc4)n3n2)c1` (centres unmarked) [Compound 255], the Ki was below 0.1 µM.

Turning to `CC(c1ccc(O)cc1)c1nnc2sc(Nc3cccc(C(F)(F)F)c3)nn12` (centres unmarked) [Compound 138], the Ki was below 0.1 µM.

`Oc1ccc(Cc2nnc3sc(Nc4ccccc4Cl)nn23)cc1F` [Compound 79]: the Ki is 0.1 to 2 µM.

For the molecule `Oc1cccc(Cc2nnc3sc(Nc4cccc(C(F)(F)F)c4)nn23)c1` [Compound 137], the Ki lay in the range of 0.1 to 2 µM.

Turning to `Oc1cccc(Cc2nnc3sc(Nc4cc(F)cc(F)c4)nn23)c1` [Compound 124], the Ki lay within 0.1 to 2 µM.

Turning to `Cc1cc(C)cc(Nc2ccc3nnc(Cc4ccc5c(c4)OCO5)n3n2)c1` [Compound 248], the Ki is 0.1 to 2 µM.

On to `CC(C)CC(C)Nc1ccc2nnc(Cc3ccc(O)cc3)n2n1` (centres unmarked) [Compound 279], for which the Ki was in the range of 0.1 to 2 µM.

Consider `COc1ccc(Cc2nnc3sc(-c4cccs4)nn23)cc1` [Compound 22], for which the Ki lay in the range of 0.1 to 2 µM.

In the case of `COc1cccc(Nc2nn3c(Cc4ccc(O)c(OC)c4)nnc3s2)c1` [Compound 38], the Ki lay within 0.1 to 2 µM.

As for `Clc1ccc(Nc2nn3c(Cc4ccc5c(c4)OCO5)nnc3s2)cc1` [Compound 56], the Ki was 0.1 to 2 µM.

In the case of `COc1ccc(Nc2nn3c(Cc4ccc5c(c4)OCO5)nnc3s2)cc1` [Compound 65], the Ki was in the range of 0.1 to 2 µM.

Turning to `COc1ccccc1Nc1nn2c(Cc3ccc4c(c3)OCO4)nnc2s1` [Compound 28], the Ki lay within 0.1 to 2 µM.

As to `Fc1c(Cl)cccc1Nc1nn2c(Cc3ccc4c(c3)OCO4)nnc2s1` [Compound 126], the Ki is 0.1 to 2 µM.

Consider `Cc1cc(C)cc(Nc2ccc3nnc(Cc4ccncc4)n3n2)c1` [Compound 249], for which the Ki was above 2 µM.

Take `Cc1ccc(Nc2nn3c(Cc4ccc(O)cc4)nnc3s2)cc1Cl` [Compound 73]: the Ki fell in the range of 0.1 to 2 µM.

As to `Oc1ccc(Cc2nnc3sc(Nc4cccc(F)c4)nn23)cc1` [Compound 59], the Ki is below 0.1 µM.

With `Nc1nn2c(Cc3ccc(OCc4ccccc4)cc3)nnc2s1` [Compound 1], the Ki was above 2 µM.

As to `O=C1CCCN1CCCNc1ccc2nnc(Cc3ccc(O)cc3)n2n1` [Compound 199], the Ki was above 2 µM.

Turning to `C[C@@H](c1ccc(O)cc1)c1nnc2sc(Nc3cncc(Cl)c3)nn12` [Compound 162], the Ki is below 0.1 µM.

On to `Oc1ccc(Cc2nnc3ccc(Nc4cc(F)cc(F)c4)nn23)cc1` [Compound 250], for which the Ki was below 0.1 µM.

For `c1csc(-c2nn3c(Cc4ccc5c(c4)OCO5)nnc3s2)c1` [Compound 2, 3-((benzo[d][1,3]dioxol-5-yl)methyl)-6-(thiophen-2-yl)-[1,2,4]triazolo[3,4-b][1,3,4]thiadiazole], the Ki lay in the range of 0.1 to 2 µM.

As to `Oc1ccc(Cc2nnc3ccc(N4CCC[C@H]4CN4CCCC4)nn23)cc1` [Compound 200], the Ki is above 2 µM.

With `CC1CCCC(Nc2ccc3nnc(Cc4ccc(O)cc4)n3n2)C1C` (centres unmarked) [Compound 270], the Ki was 0.1 to 2 µM.

As a reminder, the Ki is the dissociation constant of the complex between target and ligand, obtained from inhibition or displacement.
